The target of one test is T1, gp120/DC-SIGN-Fc (Homo sapiens, UniProt Q9NNX6).
T1 construct: fused on or other part: Human IgG Fc fused on as a dimerising and detection handle (detected with anti-human IgG, Fc-gamma-specific antibody)
T1 sequence (Q9NNX6 250-404 limits assumed): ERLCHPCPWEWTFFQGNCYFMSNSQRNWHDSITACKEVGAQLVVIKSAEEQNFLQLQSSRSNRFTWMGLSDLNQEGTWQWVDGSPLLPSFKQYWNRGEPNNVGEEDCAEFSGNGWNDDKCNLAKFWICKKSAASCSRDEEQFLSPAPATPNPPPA
In words: gp120/Fc-DC-SIGN competition ELISA. Format: binding. The procedure:
It was then determined whether oligomannose dendrons are able to interfere with the binding between gp120 and DC-SIGN, which is likely to be a key step for dendritic cell-mediated CD4 T cell HIV infection. Gp120/Fc-DC-SIGN ELISA was performed, in a similar setting as gp120/2G12 ELISA, to evaluate the inhibition activity of glycodendrons 14 and 17.
Competition ELISA for Fc-DC-SIGN. DC-SIGN competitions were done with 1.5 μg/ml Fc-DC-SIGN as described above with a few modifications since DC-SIGN is a C-type lectin that requires Ca^2+ for binding. A Tris (10 mM, pH7.8) buffer containing NaCl (150 mM), i.e., TBS, replaced PBS in the abovementioned buffers used for coating, blocking and washing. After the initial wash step, CaCl2 (10 mM) was included in the blocking solution and all subsequent incubation and wash buffers until substrate addition. DC-SIGN-Fc binding was detected with an alkaline phosphatase-conjugated goat anti-human IgG, Fcγ-specific, Ab (Jackson ImmunoResearch Laboratories, Inc.) diluted 1:1000.
(ELISA stands for enzyme-linked immunosorbent assay.)

A further test has as its target 2G12 complex. In words: KD,surf of 2G12 complex on glycan-printed normal-NHS-density slide. Format: binding. As to conditions: immobilized on normal-NHS-density slide; saturated value. The procedure:
To further test its multivalent efficacy, 17 was immobilized onto a normal-NHS-density slide (FIG. 3d) at varying printing concentrations.
Second generation Man9 dendron 17 on normal NHS density slide: Similar procedure as for normal density Man4 slide was used. Derivative of 17 with a linker connecting free amine was used for printing. The printing concentrations are 100, 80, 60, 40, 20, 10, 8, 6, 4, 2, 1, 0.8, 0.6, 0.4, 0.2, 0.1, 0.08, 0.06, 0.04, and 0.02 μM. The KD,surf of 2G12 complex was obtained (see Table 4) as previously described.
Determination of KD,surf of glycodendron 17. The procedure is the same as that disclosed in Liang et al., “Quantitative analysis of carbohydrate-protein interactions using glycan microarrays: determination of surface and solution dissociation constants.” J Am Chem Soc 129:11177-11184 (2007), which is hereby incorporated by reference as if fully disclosed herein.

pIC50, pKd: −log10 of the molar value.

As a reminder, the pIC50 is the negative decadic logarithm of the IC50, by convention in mol/L. Higher therefore signals a small IC50. As to `O=C[C@@H](O)[C@@H](O)[C@H](O)[C@H](O)CO` [D-Mannose, reference compound], the pIC50 at gp120/DC-SIGN-Fc was 2.07. Further, the inhibition activity range result on gp120/DC-SIGN-Fc (gp120/Fc-DC-SIGN ELISA) is on record as “millimolar range”.

As a reminder, the pKd is −log10 of the Kd, conventionally taken in molar units. Man9 [Compound 2]: the negative logarithm of the Kd (pKd) at 2G12 complex was 6.08.
